# Results as given in ChEMBL document CHEMBL3885881, “DrugMatrix”.
# Species: Rattus norvegicus
# Assay: DrugMatrix - Regimen: Daily Repeat
# Assay type: toxicity, organism-based, Sprague-Dawley
# Set-up: regimen Daily Repeat, gender Male, age 6-8 weeks
# Details: in vivo, po, route oral GAVAGE, vehicle 100 % WATER; for ABSOLUTE BASOPHIL / ABSOLUTE EOSINOPHIL / ABSOLUTE LYMPHOCYTE / ABSOLUTE MONOCYTE / ABSOLUTE SEGMENTED NEUTROPHIL / BASOPHIL / EOSINOPHIL / ERYTHROCYTE COUNT / HEMATOCRIT / HEMOGLOBIN / LEUKOCYTE COUNT / LYMPHOCYTE / MEAN CORPUSCULAR HEMOGLOBIN / MEAN CORPUSCULAR HEMOGLOBIN CONCENTRATION / MEAN CORPUSCULAR VOLUME / MONOCYTE / NEUTROPHIL / NUCLEATED RED BLOOD CELLS / PLATELET COUNT: tissue Blood; for ALANINE AMINOTRANSFERASE / ALBUMIN / ALKALINE PHOSPHATASE / ASPARTATE AMINOTRANSFERASE / BLOOD UREA NITROGEN / CARBON DIOXIDE / CHLORIDE / CHOLESTEROL / CREATINE PHOSPHOKINASE / CREATININE / GLUCOSE / LACTATE DEHYDROGENASE / LIPASE / PHOSPHORUS / POTASSIUM / SODIUM / TOTAL BILIRUBIN / TOTAL PROTEIN / URIC ACID: tissue Plasma
# [1] = 2 mg/kg, 120 h, dose level Low, time 5 day
# [2] = 2000 mg/kg, 72 h, dose level High, time 3 day
# [3] = 2000 mg/kg, 120 h, dose level High, time 5 day
compound,measurement,setting,value
CC(C)(C)c1ccc(C(=O)CCCN2CCC(OC(c3ccccc3)c3ccccc3)CC2)cc1 [EBASTINE],ABSOLUTE BASOPHIL,[1],0 CELLS/uL
same,ABSOLUTE EOSINOPHIL,[1],268.33 CELLS/uL
same,ABSOLUTE LYMPHOCYTE,[1],11875.67 CELLS/uL
same,ABSOLUTE MONOCYTE,[1],285.33 CELLS/uL
same,ABSOLUTE SEGMENTED NEUTROPHIL,[1],1837.33 CELLS/uL
same,BASOPHIL,[1],0%
same,EOSINOPHIL,[1],1.67%
same,ERYTHROCYTE COUNT,[1],5.47 x10E6/uL
same,HEMATOCRIT,[1],34.03%
same,HEMOGLOBIN,[1],13.83 G/DL
same,LEUKOCYTE COUNT,[1],14.27 x10E3/uL
same,LYMPHOCYTE,[1],83.33%
same,MEAN CORPUSCULAR HEMOGLOBIN,[1],25.3 pg
same,MEAN CORPUSCULAR HEMOGLOBIN CONCENTRATION,[1],40.67 G/DL
same,MEAN CORPUSCULAR VOLUME,[1],62.27 fL
same,MONOCYTE,[1],2%
same,NEUTROPHIL,[1],13%
same,NUCLEATED RED BLOOD CELLS,[1],0 /100WBC
same,PLATELET COUNT,[1],1267.33 x10E3/uL
same,ALANINE AMINOTRANSFERASE,[1],45.33 u/L
same,ALBUMIN,[1],4.3 G/DL
same,ALKALINE PHOSPHATASE,[1],377.33 u/L
same,ASPARTATE AMINOTRANSFERASE,[1],74 u/L
same,BLOOD UREA NITROGEN,[1],15.67 mg/dL
same,CARBON DIOXIDE,[1],27.33 mmol/L
same,CHLORIDE,[1],101 MEQ/L
same,CHOLESTEROL,[1],75 mg/dL
same,CREATINE PHOSPHOKINASE,[1],212.67 u/L
same,CREATININE,[1],0.24 mg/dL
same,GLUCOSE,[1],160.33 mg/dL
same,LACTATE DEHYDROGENASE,[1],207.67 u/L
same,LIPASE,[1],10 u/L
same,PHOSPHORUS,[1],12.17 mg/dL
same,POTASSIUM,[1],6.8 MEQ/L
same,SODIUM,[1],140.47 MEQ/L
same,TOTAL BILIRUBIN,[1],0.2 mg/dL
same,TOTAL PROTEIN,[1],5.9 G/DL
same,URIC ACID,[1],1.87 mg/dL
same,ABSOLUTE BASOPHIL,[2],0 CELLS/uL
same,ABSOLUTE EOSINOPHIL,[2],34.67 CELLS/uL
same,ABSOLUTE LYMPHOCYTE,[2],11326.67 CELLS/uL
same,ABSOLUTE MONOCYTE,[2],253 CELLS/uL
same,ABSOLUTE SEGMENTED NEUTROPHIL,[2],2019 CELLS/uL
same,BASOPHIL,[2],0%
same,EOSINOPHIL,[2],0.33%
same,ERYTHROCYTE COUNT,[2],6 x10E6/uL
same,HEMATOCRIT,[2],36.1%
same,HEMOGLOBIN,[2],14.77 G/DL
same,LEUKOCYTE COUNT,[2],13.63 x10E3/uL
same,LYMPHOCYTE,[2],83%
same,MEAN CORPUSCULAR HEMOGLOBIN,[2],24.63 pg
same,MEAN CORPUSCULAR HEMOGLOBIN CONCENTRATION,[2],40.9 G/DL
same,MEAN CORPUSCULAR VOLUME,[2],60.27 fL
same,MONOCYTE,[2],1.67%
same,NEUTROPHIL,[2],15%
same,NUCLEATED RED BLOOD CELLS,[2],0.33 /100WBC
same,PLATELET COUNT,[2],1204 x10E3/uL
same,ALANINE AMINOTRANSFERASE,[2],96.33 u/L
same,ALBUMIN,[2],3.67 G/DL
same,ALKALINE PHOSPHATASE,[2],316 u/L
same,ASPARTATE AMINOTRANSFERASE,[2],119.67 u/L
same,BLOOD UREA NITROGEN,[2],13.67 mg/dL
same,CARBON DIOXIDE,[2],23.67 mmol/L
same,CHLORIDE,[2],103.67 MEQ/L
same,CHOLESTEROL,[2],57.33 mg/dL
same,CREATINE PHOSPHOKINASE,[2],1102 u/L
same,CREATININE,[2],0.21 mg/dL
same,GLUCOSE,[2],195 mg/dL
same,LACTATE DEHYDROGENASE,[2],227 u/L
same,LIPASE,[2],8.67 u/L
same,PHOSPHORUS,[2],11.03 mg/dL
same,POTASSIUM,[2],4.81 MEQ/L
same,SODIUM,[2],144.03 MEQ/L
same,TOTAL BILIRUBIN,[2],0.1 mg/dL
same,TOTAL PROTEIN,[2],5.2 G/DL
same,URIC ACID,[2],1.47 mg/dL
same,ABSOLUTE BASOPHIL,[3],0 CELLS/uL
same,ABSOLUTE EOSINOPHIL,[3],0 CELLS/uL
same,ABSOLUTE LYMPHOCYTE,[3],11532 CELLS/uL
same,ABSOLUTE MONOCYTE,[3],384.67 CELLS/uL
same,ABSOLUTE SEGMENTED NEUTROPHIL,[3],2350 CELLS/uL
same,BASOPHIL,[3],0%
same,EOSINOPHIL,[3],0%
same,ERYTHROCYTE COUNT,[3],6.72 x10E6/uL
same,HEMATOCRIT,[3],41.1%
same,HEMOGLOBIN,[3],16.37 G/DL
same,LEUKOCYTE COUNT,[3],14.27 x10E3/uL
same,LYMPHOCYTE,[3],79.67%
same,MEAN CORPUSCULAR HEMOGLOBIN,[3],24.4 pg
same,MEAN CORPUSCULAR HEMOGLOBIN CONCENTRATION,[3],39.83 G/DL
same,MEAN CORPUSCULAR VOLUME,[3],61.3 fL
same,MONOCYTE,[3],3%
same,NEUTROPHIL,[3],17.33%
same,NUCLEATED RED BLOOD CELLS,[3],0 /100WBC
same,PLATELET COUNT,[3],1272.67 x10E3/uL
same,ALANINE AMINOTRANSFERASE,[3],120.67 u/L
same,ALBUMIN,[3],3.9 G/DL
same,ALKALINE PHOSPHATASE,[3],248 u/L
same,ASPARTATE AMINOTRANSFERASE,[3],112.33 u/L
same,BLOOD UREA NITROGEN,[3],16.33 mg/dL
same,CARBON DIOXIDE,[3],28 mmol/L
same,CHLORIDE,[3],105.67 MEQ/L
same,CHOLESTEROL,[3],47 mg/dL
same,CREATINE PHOSPHOKINASE,[3],523 u/L
same,CREATININE,[3],0.22 mg/dL
same,GLUCOSE,[3],151 mg/dL
same,LACTATE DEHYDROGENASE,[3],262.67 u/L
same,LIPASE,[3],8 u/L
same,PHOSPHORUS,[3],10.77 mg/dL
same,POTASSIUM,[3],4.79 MEQ/L
same,SODIUM,[3],145.73 MEQ/L
same,TOTAL BILIRUBIN,[3],0.13 mg/dL
same,TOTAL PROTEIN,[3],5.13 G/DL
same,URIC ACID,[3],1.23 mg/dL
